Results: paper PMC9264115, “Pd-catalyzed C–C and C–N cross-coupling reactions in 2-aminothieno[3,2-d]pyrimidin-4(3H)-one series for antiplasmodial pharmacomodulation” (RSC Advances, 2022)

What was measured:
[1] = Cytotoxic evaluation, MTT assay; type: cell-based; conditions: HepG2 cells, human HepG2 cell line, three independent experiments
Description: The HepG2 cell line was maintained at 37 °C, 5% CO2, at 90% humidity in […] supplemented with 10% fetal bovine serum, 1% L-glutamine (200 mM), and penicillin (100 U per mL)/streptomycin (100 μg mL^−1) (complete RPMI medium). The cytotoxicity of the tested molecules on the HepG2 (hepatocarcinoma cell line purchased from ATCC, ref HB-8065) cell line was assessed according to the method of Mosmann[20] with slight modifications. Briefly, 5 × 10^3 cells in 100 μL of complete medium were inoculated into each well of 96-well plates and incubated at 37 °C in humidified 5% CO2. After 24 h incubation, 100 μL of medium with various product concentrations dissolved in DMSO (final concentration less than 0.5% v/v) were added and the plates were incubated for 72 h at 37 °C. Triplicate assays were performed for each sample. Each plate was then microscopically examined for possible precipitate formation before the medium was aspirated from the wells. Next, 100 μL of MTT (3-(4,5-dimethyl-2-thiazolyl)-2,5-diphenyl-2H-tetrazolium bromide) solution (0.5 mg mL^−1 in medium without FBS) was added to each well. Cells were incubated for 2 h at 37 °C. After this time, the MTT solution was removed and DMSO (100 μL) was added to dissolve the resulting blue formazan crystals. Plates were shaken vigorously (700 rpm) for 10 min. The absorbance was measured at 570 nm with 630 nm as a reference wavelength using a BIO-TEK ELx808 Absorbance Microplate Reader (LabX, Midland, ON, Canada). DMSO was used as a blank and doxorubicin (purchased from Sigma Aldrich) as a positive control. Cell viability was calculated as a percentage of control (cells incubated without the compound). […] CC50 values to represent the mean value calculated from three independent experiments.

[2] = system: K1 culture-adapted P. falciparum strain; assay: Antiplasmodial evaluation, SYBR Green I fluorescence-based drug susceptibility test; type: cell-based; conditions: for EC50: Plasmodium falciparum, multi-resistant K1 strain of P. falciparum, 72 h incubation, three independent experiments, read-out: EC50 PfK1; for SI (selectivity index): from CC50 HepG2 and EC50 PfK1
Description: […]. Parasitemia was maintained daily between 1 and 3%. The P. falciparum drug susceptibility test was carried out by comparing quantities of DNA in treated and control cultures of parasite in human erythrocytes according to a SYBR Green I fluorescence-based method[19] using a 96-well fluorescence plate reader. Compounds previously dissolved in DMSO (final concentration less than 0.5% v/v) were incubated in a total assay volume of 200 μL (RPMI, 2% hematocrit and 0.4% parasitemia) for 72 h in a humidified atmosphere (10% O2 and 5% CO2) at 37 °C in 96-well flat bottom plates. Duplicate assays were performed for each sample. After incubation, plates were frozen at […] for 24 h. Then, the frozen plates were thawed for 1 h at 37 °C. Fifteen μL of each sample were transferred to 96-well flat bottom non-sterile black plates (Greiner Bio-one, Kremsmünster, Austria), already containing 15 μL of the SYBR Green I lysis buffer (2X SYBR Green I, 20 mM Tris base pH 7.5, 20 mM EDTA, 0.008% w/v saponin, 0.08% w/v Triton X-100). […] Plates were incubated for 15 min at 37 °C and then read on a TECAN Infinite F-200 spectrophotometer with excitation and emission wavelengths at 485 and 535 nm, respectively.

| Structure (SMILES) | CC50 at 72 h [1] [µM] | EC50 [2] [µM] | SI (selectivity index) [2] | melting point [°C] |
| --- | --- | --- | --- | --- |
| CC(C)(C)Nc1nc2cc(Br)sc2c(=O)[nH]1 [Compound 1, 6-Bromo-2-(tert-butylamino)thieno[3,2-d]pyrimidin-4(3H)-one] | 38.2 ± 3.5 | 43.2 ± 2.6 | 0.9 | – |
| Cc1ccc(Nc2cc3nc(NC(C)(C)C)[nH]c(=O)c3s2)cc1 [Compound 1a, 2-tert-Butylamino-6-[(4-methylphenyl)amino]thieno[3,2-d]pyrimidin-4(3H)-one] | 21.7 ± 2.1 | 10.3 ± 0.2 | – | – |
| Cc1cccc(Nc2cc3nc(NC(C)(C)C)[nH]c(=O)c3s2)c1 [Compound 1b, 2-tert-Butylamino-6-[(3-methylphenyl)amino]thieno[3,2-d]pyrimidin-4(3H)-one] | 5.3 ± 0.4 | 1.1 ± 0.3 | – | – |
| Cc1ccccc1Nc1cc2nc(NC(C)(C)C)[nH]c(=O)c2s1 [Compound 1c, 2-tert-Butylamino-6-[(2-methylphenyl)amino]thieno[3,2-d]pyrimidin-4(3H)-one] | 14.1 ± 0.3 | 4.3 ± 0.2 | – | – |
| COc1ccc(Nc2cc3nc(NC(C)(C)C)[nH]c(=O)c3s2)cc1 [Compound 1d, 2-tert-Butylamino-6-[(4-methoxyphenyl)amino]thieno[3,2-d]pyrimidin-4(3H)-one] | 24 ± 3.1 | 7.2 ± 2 | 3.3 | 205 to 207 |
| CC(C)(C)Nc1nc2cc(Nc3ccc(F)cc3)sc2c(=O)[nH]1 [Compound 1e, 2-tert-Butylamino-6-[(4-fluorophenyl)amino]thieno[3,2-d]pyrimidin-4(3H)-one] | 21.3 ± 1.6 | 7.1 ± 1.4 | 3.0 | 195 to 197 |
| CC(C)(C)Nc1nc2cc(C#CCCO)sc2c(=O)[nH]1 [Compound 2d, 2-tert-Butylamino-6-(4-hydroxybut-1-yn-1-yl)thieno[3,2-d]pyrimidin-4(3H)-one] | > 50 | > 10 | – | – |
| C#Cc1cc2nc(NC(C)(C)C)[nH]c(=O)c2s1 [Compound 2f, 2-tert-Butylamino-6-ethynylthieno[3,2-d]pyrimidin-4(3H)-one] | 4.7 ± 1 | > 12.5 | – | – |
| CN1CCN(CC#Cc2cc3nc(NC(C)(C)C)[nH]c(=O)c3s2)CC1 [Compound 2g, 2-tert-Butylamino-6-[3-(4-methylpiperazin-1-yl)prop-1-yn-1-yl]thieno[3,2-d]pyrimidin-4(3H)-one] | 41.6 ± 5.2 | > 5 | – | – |
| CC(C)(C)Nc1nc2cc(-c3ccc([N+](=O)[O-])cc3)sc2c(=O)[nH]1 [Compound 4b, 2-tert-Butylamino-6-(4-nitrophenyl)thieno[3,2-d]pyrimidin-4(3H)-one] | – | – | – | > 300 |
| CC(C)(C)Nc1nc2cc(-c3ccc(O)cc3)sc2c(=O)[nH]1 [Compound 4d, 2-(tert-butylamino)-6-(4-hydroxyphenyl)thieno[3,2-d]pyrimidin-4(3H)-one] | 12.2 ± 0.3 | 7.5 ± 1 | – | – |
| CN1CCN(c2ccc(-c3cc4nc(NC(C)(C)C)[nH]c(=O)c4s3)cc2)CC1 [Compound 4h, 2-tert-Butylamino-6-[4-(4-methylpiperazin-1-yl)phenyl]thieno[3,2-d]pyrimidin-4(3H)-one] | 5.8 ± 0.5 | 4.1 ± 0.7 | – | – |
| CC(C)(C)Nc1nc2cc(-c3ccc(N4CCCCC4)cc3)sc2c(=O)[nH]1 [Compound 4i, 2-tert-Butylamino-6-[4-(piperidin-1-yl)phenyl]thieno[3,2-d]pyrimidin-4(3H)-one] | > 6.25 | 4.1 ± 1.2 | – | – |
| CC(C)(C)Nc1nc2cc(-c3ccc(S(C)(=O)=O)cc3)sc2c(=O)[nH]1 [Compound 4k, 2-tert-Butylamino-6-[4-(methylsulfonyl)phenyl]thieno[3,2-d]pyrimidin-4(3H)-one] | > 25 | 3 ± 0.6 | – | – |
| CC(C)Nc1nc2cc(-c3ccc(N)cc3)sc2c(=O)[nH]1 [Compound 4q, 6-(4-aminophenyl)-2-(propan-2-ylamino)thieno[3,2-d]pyrimidin-4(3H)-one] | 11.3 ± 3.5 | 6 ± 1.1 | – | – |
